The term IC50 denotes the concentration needed to halve the response being measured.

For one experiment, the target named is T1, ALK-wt (Homo sapiens, UniProt Q9UM73).
T1 construct: purchased Carna 08-518
In words: Biochemical kinase assay, ALK-wt kinase domain. As to conditions: apparent inhibitory constant, Morrison equation; ATP 2 mM in substrate solution; read-out: ALK-wt Ki^app. Put shortly:
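Apparent Ki values come from fitting initial reaction rates against inhibitor concentration to the Morrison equation. Rates were taken from the linear phase of fluorogenic substrate phosphorylation (AQT0101 for ALK and ROS1, AQT0104 for TRKA; 26 μM in substrate solution with 2 mM ATP), monitored at 485 nm over 120 min at 30° C.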

For another experiment, the target named is T2, ROS1-G2032R (Homo sapiens, UniProt P08922, G2032R).
T2 construct: purchased SignalChem R14-12BG
T2 sequence (P08922 1945-2222 G2032R limits assumed): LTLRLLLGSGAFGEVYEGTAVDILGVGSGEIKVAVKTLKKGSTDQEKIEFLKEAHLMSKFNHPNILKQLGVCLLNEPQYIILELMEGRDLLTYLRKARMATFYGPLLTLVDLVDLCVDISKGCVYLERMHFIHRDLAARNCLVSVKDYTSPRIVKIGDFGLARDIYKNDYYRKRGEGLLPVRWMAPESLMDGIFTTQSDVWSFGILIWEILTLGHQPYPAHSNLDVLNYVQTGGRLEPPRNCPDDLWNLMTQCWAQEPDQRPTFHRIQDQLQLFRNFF
Kind of experiment: Biochemical kinase assay, ROS1-G2032R kinase domain. The settings on record: apparent inhibitory constant, Morrison equation; ATP 2 mM in substrate solution; read-out: ROS1-G2032R Ki^app. Put shortly:
(§1)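 Compounds, as 100-fold DMSO stocks, were dispensed first, then substrate mix was added (ATP 2 mM, AQT0101 26 μM, in 50 mM HEPES pH 7.5/10 mM MgCl2). Reactions ran at 30 °C with fluorescence logged every 2 min over 120 min. Apparent inhibition constants came from fitting rates to Morrison's tight-binding equation.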

For experiment [1], the target named is T3, Ba/F3 cells CD74-ROS1 wild-type (wt) (Homo sapiens, UniProt P08922).
T3 construct: fusion of the C-terminus of ROS1 with the N-terminus of various partner proteins; host or cells: Ba/F3 (RIKEN), retroviral pMSCV-puro; the other entry of the earlier key: CD74 (P04233, HLA class II histocompatibility antigen gamma chain)
T3 sequence (P08922 1883-2347 limits assumed): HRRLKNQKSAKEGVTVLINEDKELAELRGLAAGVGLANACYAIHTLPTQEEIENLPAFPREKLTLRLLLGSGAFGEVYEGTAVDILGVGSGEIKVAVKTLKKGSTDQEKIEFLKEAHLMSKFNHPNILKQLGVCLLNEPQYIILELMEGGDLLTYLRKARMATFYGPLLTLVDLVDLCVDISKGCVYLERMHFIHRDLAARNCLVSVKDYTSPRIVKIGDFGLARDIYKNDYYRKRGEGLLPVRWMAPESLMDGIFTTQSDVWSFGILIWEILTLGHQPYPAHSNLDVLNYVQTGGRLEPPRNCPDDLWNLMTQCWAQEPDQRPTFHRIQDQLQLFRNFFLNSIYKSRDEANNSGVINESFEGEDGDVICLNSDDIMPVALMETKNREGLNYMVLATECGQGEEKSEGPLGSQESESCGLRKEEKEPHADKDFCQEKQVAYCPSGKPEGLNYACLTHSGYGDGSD
Kind of experiment: Ba/F3 cell proliferation assay, CD74-ROS1 wild-type. In kind it is cell-based. The settings on record: 72 hours, CellTiter-Glo. Put shortly:
(§2)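 First, retrovirally infected Ba/F3 cells were made IL-3-independent and selected with puromycin (0.8 μg/mL). Next, cells were plated and rested one day. Then compounds in 3-fold dilutions were added for 72 hours before CellTiter-Glo readout.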
For orientation: Cellular ATP, detected with luciferase, serves as a proxy for viable cell number.

For a further experiment, the target named is T4, ROS1-wt (Homo sapiens, UniProt P08922).
T4 construct: purchased Carna 08-163
T4 sequence (P08922 1945-2222 limits assumed): as the sequence (P08922 1945-2222 G2032R limits assumed) above, with R88G counted along it
Kind of experiment: Biochemical kinase assay, ROS1-wt kinase domain. The settings on record: apparent inhibitory constant, Morrison equation; ATP 2 mM in substrate solution; read-out: ROS1-wt Ki^app. The method in brief:
as §1

Experiment [2] has as its target T5, Ba/F3 cells EML4-ALK L1196M/G1202R (variant 1) (Homo sapiens, UniProt Q9UM73, G1202R/L1196M).
T5 construct: echinoderm microtubule-associated protein-like 4 (EML4) gene and the ALK tyrosine kinase domain; host or cells: Ba/F3 (RIKEN), retroviral pMSCV-puro; the other entry of the earlier key: EML4 (Q9HC35, Echinoderm microtubule-associated protein-like 4)
In words: Ba/F3 cell proliferation assay, EML4-ALK L1196M/G1202R (variant 1). The class given is cell-based. As to conditions: 72 hours, CellTiter-Glo. Put shortly: (§3)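 IL-3-independent Ba/F3 lines stably expressing the fusion kinase (retroviral, puromycin-selected), 1,000 cells/well, treated with 3-fold compound dilutions for 72 h. Viability by CellTiter-Glo luminescence; IC50 from four-parameter logistic fit of percent inhibition.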

Another experiment concerns the target T6, Ba/F3 cells TPM3-TRKA (Homo sapiens, UniProt P04629).
T6 construct: host or cells: Ba/F3 (RIKEN), retroviral pMSCV-puro; the other entry of the earlier key: TPM3 (P06753, Tropomyosin alpha-3 chain)
Kind of experiment: Ba/F3 cell proliferation assay, TPM3-TRKA. The class given is cell-based. As to conditions: 72 hours, CellTiter-Glo, read-out: TPM3-NTRK1-wt IC50. The method in brief: as §3

The target in another experiment is T7, TRKA-wt (Homo sapiens, UniProt P04629).
T7 construct: or TRKA-wt (1 nM, BPS Bio, 40280) kinase domains in buffer; purchased BPS Bio 40280
T7 sequence (P04629 510-781 limits assumed): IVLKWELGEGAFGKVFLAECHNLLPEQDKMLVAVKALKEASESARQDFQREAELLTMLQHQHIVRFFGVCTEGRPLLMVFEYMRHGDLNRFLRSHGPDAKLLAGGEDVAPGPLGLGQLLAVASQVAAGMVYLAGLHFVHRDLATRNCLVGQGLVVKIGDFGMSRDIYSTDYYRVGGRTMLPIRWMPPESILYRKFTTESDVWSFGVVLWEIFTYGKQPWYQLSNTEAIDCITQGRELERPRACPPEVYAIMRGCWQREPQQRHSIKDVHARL
In words: Biochemical kinase assay, TRKA-wt kinase domain. As to conditions: apparent inhibitory constant, Morrison equation; ATP 2 mM in substrate solution; read-out: TRKA-wt Ki^app. Put shortly:
(§4)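 Kinase domains (in kinase solution: ROS1-G2032R 0.5 nM, ROS1-wt 0.6 nM, TRKA 1 nM, ALK L1196M/G1202R 3 nM) were mixed with compound and a substrate solution of 2 mM ATP plus 26 μM fluorogenic AQT0101 (ALK, ROS1) or AQT0104 (TRKA) in HEPES pH 7.5/MgCl2. Fluorescence was followed for 120 min at 30° C; Ki^app was obtained by Morrison fit of initial rates.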

The target in experiment [3] is T8, Ba/F3 cells CD74-ROS1 G2032R (Homo sapiens, UniProt P08922, G2032R).
T8 construct: fusion of the C-terminus of ROS1 with the N-terminus of various partner proteins; host or cells: Ba/F3 (RIKEN), retroviral pMSCV-puro; the other entry of the earlier key: CD74 (P04233, HLA class II histocompatibility antigen gamma chain)
T8 sequence (P08922 1883-2347 G2032R limits assumed): as the sequence (P08922 1883-2347 limits assumed) above, with G150R counted along it
In words: Ba/F3 cell proliferation assay, CD74-ROS1 G2032R. In kind it is cell-based. The settings on record: 72 hours, CellTiter-Glo. Put shortly:
as §2

A further experiment addresses T9, ALK L1196M/G1202R (Homo sapiens, UniProt Q9UM73, G1202R/L1196M).
T9 construct: purchased SignalChem A19-12NG
Kind of experiment: Biochemical kinase assay, ALK L1196M/G1202R kinase domain. As to conditions: apparent inhibitory constant, Morrison equation; ATP 2 mM in substrate solution; read-out: ALK-L1196M-G1202R Ki^app. The method in brief: as §4

The target in experiment [4] is T10, Ba/F3 cells EML4-ALK wt (variant 1) (Homo sapiens, UniProt Q9UM73).
T10 construct: echinoderm microtubule-associated protein-like 4 (EML4) gene and the ALK tyrosine kinase domain; host or cells: Ba/F3 (RIKEN), retroviral pMSCV-puro; the other entry of the earlier key: EML4 (Q9HC35, Echinoderm microtubule-associated protein-like 4)
T10 sequence (Q9UM73 with tags, fused parts or gaps): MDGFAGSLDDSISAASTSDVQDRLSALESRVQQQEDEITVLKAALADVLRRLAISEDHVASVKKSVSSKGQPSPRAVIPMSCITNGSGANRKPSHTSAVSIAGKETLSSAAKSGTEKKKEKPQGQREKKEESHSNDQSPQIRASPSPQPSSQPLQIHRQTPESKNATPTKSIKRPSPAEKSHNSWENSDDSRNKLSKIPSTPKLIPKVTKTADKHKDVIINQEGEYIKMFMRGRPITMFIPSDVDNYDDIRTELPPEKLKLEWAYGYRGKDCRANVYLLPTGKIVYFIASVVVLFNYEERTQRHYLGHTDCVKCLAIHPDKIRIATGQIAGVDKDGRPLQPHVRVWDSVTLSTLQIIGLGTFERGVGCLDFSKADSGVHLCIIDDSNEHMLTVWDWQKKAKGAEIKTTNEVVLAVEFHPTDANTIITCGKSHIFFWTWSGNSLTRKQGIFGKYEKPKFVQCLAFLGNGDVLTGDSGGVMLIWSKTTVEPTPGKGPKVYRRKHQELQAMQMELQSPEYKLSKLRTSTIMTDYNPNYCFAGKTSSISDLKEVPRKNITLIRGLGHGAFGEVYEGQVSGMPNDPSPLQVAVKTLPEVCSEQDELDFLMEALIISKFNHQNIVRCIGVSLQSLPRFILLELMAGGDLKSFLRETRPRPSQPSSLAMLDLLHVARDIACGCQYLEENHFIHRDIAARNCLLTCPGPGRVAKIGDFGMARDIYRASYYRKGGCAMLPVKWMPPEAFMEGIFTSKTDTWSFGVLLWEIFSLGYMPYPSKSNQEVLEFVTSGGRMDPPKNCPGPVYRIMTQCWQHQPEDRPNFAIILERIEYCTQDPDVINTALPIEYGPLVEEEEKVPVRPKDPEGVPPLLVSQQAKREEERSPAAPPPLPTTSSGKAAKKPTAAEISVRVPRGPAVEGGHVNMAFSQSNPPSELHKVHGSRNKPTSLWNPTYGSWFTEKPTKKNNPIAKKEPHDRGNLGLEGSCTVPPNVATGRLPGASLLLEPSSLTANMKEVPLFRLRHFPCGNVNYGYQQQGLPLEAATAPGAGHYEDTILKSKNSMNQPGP
In words: Ba/F3 cell proliferation assay, EML4-ALK wt (variant 1). In kind it is cell-based. As to conditions: 72 hours, CellTiter-Glo. Put shortly: as §3

For experiment [5], the system named is TPM3-NTRK1-wt IC50 / primary target IC50 (e.g. CD74-ROS1-wt). Kind of experiment: TRKA selectivity in Ba/F3 cells (TRKA potency divided by primary target potency). In kind it is cell-based. The settings on record: for TPM3-NTRK1-wt/CD74-ROS1-G2032R selectivity ratio: TRKA potency / CD74-ROS1-G2032R potency; for TPM3-NTRK1-wt/CD74-ROS1-wt selectivity ratio: TRKA potency / CD74-ROS1-wt potency; for TPM3-NTRK1-wt/EML4-ALK-L1196M-G1202R selectivity ratio: TRKA potency / EML4-ALK-L1196M-G1202R potency; for TPM3-NTRK1-wt/EML4-ALK-wt selectivity ratio: TRKA potency / EML4-ALK-wt potency. Here is the method: TRKA selectivity was calculated by dividing a compound's TRKA potency by its primary target potency (e.g. TPM3-NTRK1-wt IC50/CD74-ROS1-wt IC50). Compound selectivity can be interpreted by binning ratio values: bin A for very high selectivity, ratio >30-fold; bin B for high selectivity, ratio >10-fold; bin C for moderate selectivity, ratio ≥1; and bin D for low selectivity, ratio <1. […] (nd=not determined).

Some results are limits rather than exact numbers.

T5 sequence (Q9UM73 with tags, fused parts or gaps L1196M/G1202R): as the sequence (Q9UM73 with tags, fused parts or gaps) above, with L635M, G641R counted along it
T6 sequence (P04629 510-796 limits assumed): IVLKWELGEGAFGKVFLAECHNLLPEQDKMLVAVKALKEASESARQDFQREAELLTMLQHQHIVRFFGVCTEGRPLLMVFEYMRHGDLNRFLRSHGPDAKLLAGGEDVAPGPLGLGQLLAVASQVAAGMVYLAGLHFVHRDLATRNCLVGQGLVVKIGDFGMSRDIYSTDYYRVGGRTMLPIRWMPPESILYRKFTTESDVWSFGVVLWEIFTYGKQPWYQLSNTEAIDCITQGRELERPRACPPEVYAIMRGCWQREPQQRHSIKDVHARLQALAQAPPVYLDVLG
T1 sequence (Q9UM73 1116-1392 limits assumed): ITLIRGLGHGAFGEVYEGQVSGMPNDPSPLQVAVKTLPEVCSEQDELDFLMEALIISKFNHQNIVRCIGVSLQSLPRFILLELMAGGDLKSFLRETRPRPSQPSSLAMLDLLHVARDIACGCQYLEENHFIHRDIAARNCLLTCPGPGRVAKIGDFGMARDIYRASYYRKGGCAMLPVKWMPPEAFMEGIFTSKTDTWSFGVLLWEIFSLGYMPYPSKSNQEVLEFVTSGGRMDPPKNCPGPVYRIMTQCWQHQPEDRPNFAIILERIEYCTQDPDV
T9 sequence (Q9UM73 1116-1392 L1196M/G1202R limits assumed): as the sequence (Q9UM73 1116-1392 limits assumed) above, with L81M, G87R counted along it

In the case of `C[C@H]1Oc2cc(cnc2N)-c2c(CC3CC3)nn(C)c2Cc2nn(C)nc2-c2ccc(F)cc21` [Example 100, (19R)-3-(cyclopropylmethyl)-16-fluoro-5,10.19-trimethyl-20-oxa-4,5,9,10,11 23-hexaazapentacyclo[19.3.1.0^2,^6.0^8,^12.0^13,^18]pentacosa-1(24),2(6) 3,8,11,13,15,17,21(25),22-decaen-22-amine], the Ki was under 0.05 µM on ALK-wt; under 0.05 µM on ROS1-G2032R; under 0.05 µM at ROS1-wt; over 0.5 µM on TRKA-wt; under 0.05 µM on ALK L1196M/G1202R. For the same compound, the IC50 in [1] was 0.0001 to 0.05 µM; in experiment [2] it was 0.0001 to 0.05 µM; at Ba/F3 cells TPM3-TRKA, over 0.5 µM; in experiment [3] it was 0.0001 to 0.05 µM; in [4], 0.0001 to 0.05 µM. Further, the TPM3-NTRK1-wt/CD74-ROS1-G2032R selectivity ratio entry in experiment [5] is “A (bin A for very high selectivity, ratio >30-fold)”. For the same compound, the TPM3-NTRK1-wt/CD74-ROS1-wt selectivity ratio result in experiment [5] was “A (bin A for very high selectivity, ratio >30-fold)”. Moreover, the TPM3-NTRK1-wt/EML4-ALK-L1196M-G1202R selectivity ratio result in experiment [5] is listed as “A (bin A for very high selectivity, ratio >30-fold)”. The TPM3-NTRK1-wt/EML4-ALK-wt selectivity ratio result in experiment [5] is listed as “A (bin A for very high selectivity, ratio >30-fold)”.

`CCn1ncc2c1-c1cnc(N)c(c1)O[C@H](C)c1cc(F)ccc1-c1ccnn1C2` [Example 1, (19R)-3-ethyl-16-fluoro-19-methyl-20-oxa-3,4,8,9,23-pentaazapentacyclo[19.3.1.0^2,^6.0^8,^12.0^13,^18]pentacosa-1(24),2(6),4,9,11,13,15,17,21(25),22-decaen-22-amine]: the Ki is under 0.05 µM on ALK-wt; under 0.05 µM at ROS1-G2032R; under 0.05 µM on ROS1-wt; 0.05 to 0.5 µM on TRKA-wt; under 0.05 µM at ALK L1196M/G1202R. Further, the IC50 in [1] is 0.0001 to 0.05 µM; in experiment [2], 0.05 to 0.5 µM; at Ba/F3 cells TPM3-TRKA it was over 0.5 µM; in [3] it was 0.0001 to 0.05 µM; in experiment [4], 0.0001 to 0.05 µM. The TPM3-NTRK1-wt/CD74-ROS1-G2032R selectivity ratio result in experiment [5] is given as “A (bin A for very high selectivity, ratio >30-fold)”. In [5], the TPM3-NTRK1-wt/CD74-ROS1-wt selectivity ratio entry is reported as “A (bin A for very high selectivity, ratio >30-fold)”. Also, the TPM3-NTRK1-wt/EML4-ALK-L1196M-G1202R selectivity ratio entry in experiment [5] is reported as “B (bin B for high selectivity, ratio >10-fold)”. Further, the TPM3-NTRK1-wt/EML4-ALK-wt selectivity ratio entry in experiment [5] is listed as “A (bin A for very high selectivity, ratio >30-fold)”.

On to `C[C@H]1Oc2cc(cnc2N)-c2c(C#N)ncn2Cc2nccnc2-c2ccc(F)cc21` [Example 46, (20R)-23-amino-17-fluoro-20-methyl-21-oxa-4,6,9,12,24-pentaazapentacyclo[20.3.1.0^2,^6.0^8,^13.0^14,^19]hexacosa-1(25),2,4,8(13),9,11,14,16,18,22(26),23-undecaene-3-carbonitrile], for which the Ki is under 0.05 µM on ALK-wt; 0.05 to 0.5 µM at ROS1-G2032R; under 0.05 µM on ROS1-wt; over 0.5 µM at TRKA-wt; 0.05 to 0.5 µM on ALK L1196M/G1202R. For the same compound, the IC50 in experiment [1] is 0.0001 to 0.05 µM; in [2] it was 0.05 to 0.5 µM; at Ba/F3 cells TPM3-TRKA, over 0.5 µM; in experiment [3], 0.0001 to 0.05 µM; in experiment [4] it was 0.0001 to 0.05 µM. For the same compound, the TPM3-NTRK1-wt/CD74-ROS1-G2032R selectivity ratio entry in experiment [5] is given as “A (bin A for very high selectivity, ratio >30-fold)”. Besides, the TPM3-NTRK1-wt/CD74-ROS1-wt selectivity ratio entry in experiment [5] was “A (bin A for very high selectivity, ratio >30-fold)”. In [5], the TPM3-NTRK1-wt/EML4-ALK-L1196M-G1202R selectivity ratio result is “A (bin A for very high selectivity, ratio >30-fold)”. Moreover, the TPM3-NTRK1-wt/EML4-ALK-wt selectivity ratio result in experiment [5] is given as “A (bin A for very high selectivity, ratio >30-fold)”.

The values above are taken from patent US12054498B2, “Heteroaromatic macrocyclic ether chemotherapeutic agents” (Nuvalent, Inc., priority 2020, dated 2024).
